Assay results as given in US20250127777A1, “DUAL INHIBITION OF MDM2 AND EIF2-ALPHA INDUCES CELL DEATH IN MULTIPLE CANCER CELL TYPES” (The Regents of the University of Colorado, A Body Corporate, priority 2022, published 2025).

How the values were obtained:
ATF3 and ATF4 = experiment: Western blot of ATF3 and ATF4 protein; assay type: cell-based; conditions: TPC1 cells; nelfinavir alone
Description: (§1) Protein samples were prepared with cells washed twice with PBS and lysed in modified Laemmli buffer (Laemmli, 1970) (1% w/v SDS, 10% w/v glycerol, 100 mM Tris pH 7.2, protease (complete Mini, Roche) and phosphatase (PhosSTOP, Roche) inhibitors). Following a brief sonication (2.5W, 5 sec) and heat denaturation (90° C., 5 min), total protein concentration in whole cell lysates was measured by a BCA Protein Assay Kit (Pierce, Thermo Fisher Scientific). 20 μg of protein per sample was resolved by SDS-PAGE and transferred onto a 0.45 μm PVDF membrane (0.2 μm for ATF3 detection). Membranes were incubated in blocking buffer (5% fat-free milk in wash buffer—20 mM Tris pH 7.6, 150 mM NaCl, 0.2% Tween 20) for an hour at RT and o/n at 4° C. with the primary antibody diluted in a fresh blocking buffer. Next day membranes were washed three times for 10 min in the wash buffer, incubated with HRP-conjugated secondary antibody for an hour at RT, and washed again three times in the wash buffer. SuperSignal West Pico Plus Chemiluminescence Substrate (Pierce) was used for detection and digital images were acquired using an ImageQuant LAS 4000 (GE Healthcare Life Sciences).

elF2α = experiment: Western blot of elF2α phosphorylation; assay type: cell-based; conditions: 10 μM nutlin-3a, 25 μM GSK2830371, 20 μM nelfinavir; multiple cell lines
Description: as §1

TPC1 and HCT116 = experiment: Polysome profiling (polysome/monosome ratio); assay type: cell-based; conditions: 24 hours
Description: TPC1 and HCT116 were plated at 6*104/cm2 on 143 cm2 dishes, cultivated o/n, and treated accordingly. Ten minutes before the harvest cultivation media was supplemented with cycloheximide (CHX) at final concentration of 100 μg/ml. Next, cells were washed twice with ice-cold PBS with 100 μg/ml CHX and lysed in polysome preparation lysis buffer (20 mM HEPES pH 7.4, 15 mM MgCl2, 200 mM NaCl, 1% Triton X-100, 100 μg/ml CHX, 2 mM DTT, and 100U SuperaseIN). Lysates were cleared of debris by centrifugation at 20,000g, 4° C. for 10 minutes. Total nucleic acid content in lysates was measured by absorbance at 260 nm and used for sample concentration normalization. Next, 500 μl of the lysate was loaded on 10-60% sucrose gradients in SW41 tubes in lysis buffer lacking Triton X-100. These gradients were prepared using a BioComp system and chilled to 4° C. before use. Samples were ultracentrifuged at 36,000 rpm for 3 hours and 10 min, at 4° C., then samples were fractionated using a BioComp system, monitoring absorbance at 260 nm while collecting fractions of approximately 0.4 ml each.

caspase 3 = experiment: Western blot of caspase 3 cleavage; assay type: cell-based; conditions: TPC1 cells; 20 μM nelfinavir, alone or with 10 μM nutlin-3a
Description: as §1, with “Following” for “Protein samples were prepared with cells washed twice with PBS and lysed in modified Laemmli buffer (Laemmli, 1970) (1% w/v SDS, 10% w/v glycerol, 100 mM Tris pH 7.2, protease (complete Mini, Roche) and phosphatase (PhosSTOP, Roche) inhibitors). Following”

diverse cell types = experiment: Annexin V-FITC/PI apoptosis assay, elF2α plus MDM2 inhibition; assay type: cell-based
Description: TPC1, K1, HCT116, MCF7, SJSA, and HEK293FT cells were cultivated in RPMI (TPC1, SJSA), DMEM (K1, MCF7, HEK293FT), and McCoy's (HCT116) media (Gibco, Thermo Fisher Scientific) supplemented with 10% fetal bovine serum (Peak Serum) and 1% antibiotic-antimycotic mixture (Gibco). Cells were plated a day before the treatment and maintained in a humidified atmosphere with 5% of CO2 at 37° C. Both TPC1 and K1 lines were gifts from Dr. Rebecca Schweppe, University of Colorado Anschutz Medical Campus (CU-AMC). Cell line identity has been verified by short tandem repeats profiling at the Cell Technologies Shared Resource, CU-AMC. Colorectal cancer organoid cultures (CRC172) were obtained from the Enteroid Stem Cell Core facility at CU-AMC.
The fraction of apoptotic cells was determined by Annexin V-FITC/PI assay. Briefly, cells harvested by trypsinization were resuspended in Annexin-V binding buffer (10 mM HEPES pH 7.4, 140 mM NaCl, 2.5 mM CaCl2)). Approximately 2*10^5 cells were labeled with Annexin-V-FITC (Invitrogen) and PI (10 μg/ml, Millipore-Sigma) for 15 minutes in the dark before flow cytometric analysis (Accuri C6, Becton Dickinson). […] An aliquot of approximately 5*10^5 cells per sample was mixed with tetramethylrhodamine, ethyl ester, perchlorate (TMRE, Thermo Fisher, 100 nM final concentration) solution, incubated for 10 minutes in the dark, and analyzed by flow cytometer.

HCT116 xenograft tumors = experiment: HCT116 xenograft tumor model; assay type: in vivo; conditions: nude mice, 200 mg/kg nelfinavir and/or 200 mg/kg milademetan
Description: Athymic nude mice (NU/NU) weighting 20 to 30 grams and being 8-12 weeks of age (Charles River Labs) were housed in cages under standard conditions (22° C., 50% relative humidity, 12-h light/dark cycles) and provided with food and water ad libitum. Next, […] exponentially growing HCT116 cells resuspended in 100 μl Matrigel/PBS (5 mg/ml final) were injected subcutaneously into both flanks. Tumors grew for 10-14 days before treatment initiation. Experimental animals were given 200 mg/kg nelfinavir and/or 200 mg/kg Milademetan (Rain Therapeutics) by oral gavage once daily, 5 days a week. Tested compounds were prepared in a mixture of 2% Klucel (hydroxypropyl cellulose), 0.5% Tween 80, and 35% ethanol. Tumor volumes (v) were estimated daily, 5 days a week using caliper measurements and formula v=(I×w^2)/2, where I represents the greatest length of the tumor and w is tumor width in the perpendicular axis. Average volumes of the right and left flank tumors were used for plotting and calculations. Equal ratios of male and female mice were used in treatment groups (5 males and 5 females). All in vivo experiments were approved by the Institutional Animal Care and Use Committee at the CU-AMC (IACUC protocol 00432).
After indicated treatments, cells were washed with PBS, total RNA was extracted using Trizol substitute (38% Phenol, saturated, pH 4.3, 0.8 M guanidine thiocyanate, 0.4 M ammonium thiocyanate, 0.1 M sodium acetate, pH 5.0, 5% glycerol), and converted to cDNA with High-Capacity cDNA Reverse Transcription Kit (Thermo Fisher). Next, diluted cDNA was used in quantitative PCR reaction using SYBR Select Master Mix for CFX (Thermo Fisher). Detected mRNA levels were normalized to 18s rRNA values.
Tumors fixed in 4% formaldehyde were transferred to 70% ethanol and embedded in paraffin at the Pathology Shared Resource-Research Histology, University of Colorado Anschutz Medical Campus. Three tumors from each experimental group were sectioned, stained with DAPI and Ki67 primary antibody using Akoya Opal technology (Akoya Biosciences), and scanned at six representative regions with Vectra 3.0 (Akoya Biosciences) at the Human Immune Monitoring Shared Resource (University of Colorado Anschutz). Next, InForm image analysis software (Akoya Biosciences) was used for automated identification of nuclei based on the DAPI signal. Ki67 nuclear fluorescence was outputted for all nuclei.

Compound: Cc1c(O)cccc1C(=O)N[C@@H](CSc1ccccc1)[C@H](O)CN1C[C@H]2CCCC[C@H]2C[C@H]1C(=O)NC(C)(C)C [nelfinavir]
- ATF4 protein stabilization (ATF3 and ATF4): stabilized ATF4
- elF2α phosphorylation (elF2α): induced elF2α phosphorylation
- polysome/monosome ratio (TPC1 and HCT116): decreased the polysome/monosome ratio
- caspase 3 cleavage / activation (caspase 3): did not induced caspase 3 cleavage
- synergy with small molecule inhibitors of MDM2 to elicit p53-dependent cell death (diverse cell types): synergize with small molecule inhibitors of MDM2 to elicit p53-dependent cell death
- animal survival (Kaplan Meier; humane endpoint tumor size>1000 mm^3) (HCT116 xenograft tumors; oral gavage): had to be sacrificed at the humane endpoint
- tumor growth (HCT116 xenograft tumors; oral gavage once daily, 5 days a week): Tumors continued to grow
